Measured values taken from patent publication US11753445B2, “Therapeutic peptides” (COHBAR, INC., priority 2016, dated 2023).
Peptide text beside a SMILES is read from it.

System: 3T3-L1 Adipocytes
Assay: Free fatty acid levels in cultured mouse 3T3-L1 adipocytes, isoproterenol stimulated (Example 2)
Assay type: cell-based
Conditions: test peptides 25 μM; isoproterenol 1 nM
Description: Mouse 3T3-L1 cells were seeded at a density between 1,000-20,000 cells per well on 96-well, 48-well, or 24-well plates in Pre-adipocyte Medium (Zen-Bio, Durham, N.C.) and grown to confluence at 37° C. in a humidified atmosphere of 5% CO2/95% air. Two days after confluence, cells were placed in Adipocyte Differentiation Medium (Zen-Bio, Durham, N.C.) and cultured for three additional days at 37° C. in a humidified atmosphere of 5% CO2/95% air. The culture media was then replaced with Adipocyte Maintenance Medium (Zen-Bio) and the cells were maintained for an additional 9-14 days at 37° C. in a humidified atmosphere of 5% CO2/95% air with partial medium replacement every other day. Following 12-17 days of differentiation, test peptides were added at a final concentration of 25 μM and incubated for 18-20 hours in Adipocyte Maintenance Medium at 37° C. in a humidified atmosphere of 5% CO2/95%. After 18-20 hours, the media was exchanged with fresh Adipocyte Maintenance Medium containing test peptides and incubated for 1 h at 37° C. in a humidified atmosphere of 5% CO2/95%. After 1 h media was exchanged with Assay Buffer (Zen-Bio) containing isoproterenol (1 nM) (added to all samples except untreated controls) and the test peptides. Cells were incubated for a further 3 hours at 37° C. in a humidified atmosphere of 5% CO2/95%. Free fatty acid concentrations in the media were determined using a Free Fatty Acid Assay Kit (Zen-Bio) according to the manufacturer's instructions using a plate reader (540 nm).
Absorbance values were corrected for untreated background and expressed relative to isoproterenol treated cells. Treatment with isoproterenol (1 nM) alone was used as the free fatty acid level stimulatory control. The relative standard deviation of the isoproterenol control was <10%. […] Free fatty acid levels for insulin (100 nM) treatment were <5% of the isoproterenol control value.

| Compound | Free Fatty Acid Levels in 3T3-L1 Adipocytes Expressed as a Percent of Isoproterenol Control: Percent of Control Value [%] |
| --- | --- |
| CC[C@H](C)[C@H](NC(=O)[C@H](Cc1ccc(O)cc1)NC(=O)CNC(=O)[C@H](CCSC)NC(=O)[C@H](CCC(=O)O)NC(=O)[C@H](CCC(N)=O)NC(=O)[C@@H](C)NC(=O)[C@H](CCCNC(=N)N)NC(=O)[C@H](CCSC)NC(C)=O)C(=O)N[C@@H](Cc1ccccc1)C(=O)N[C@@H](Cc1ccc(O)cc1)C(=O)N1CCC[C@H]1C(=O)N[C@@H](CCCNC(=N)N)C(=O)N[C@@H](CCCCN)C(=O)N[C@@H](CC(C)C)C(=O)N[C@@H](CCCNC(=N)N)C(N)=O [compound 154] (HELM PEPTIDE1{[ac].M.R.[dA].Q.E.M.G.Y.I.F.Y.P.R.K.L.R.[am]}$$$$V2.0) | 95.7 |
| CC[C@H](C)[C@H](NC(=O)[C@H](Cc1ccc(O)cc1)NC(=O)CNC(=O)[C@H](CCSC)NC(=O)[C@H](CCC(=O)O)NC(=O)[C@@H](C)NC(=O)[C@H](Cc1c[nH]c2ccccc12)NC(=O)[C@H](CCCNC(=N)N)NC(=O)[C@H](CCSC)NC(C)=O)C(=O)N[C@@H](Cc1ccccc1)C(=O)N[C@@H](Cc1ccc(O)cc1)C(=O)N1CCC[C@H]1C(=O)N[C@@H](CCCNC(=N)N)C(=O)N[C@@H](CCCCN)C(=O)N[C@@H](CC(C)C)C(=O)N[C@@H](CCCNC(=N)N)C(N)=O [compound 155] (HELM PEPTIDE1{[ac].M.R.W.[dA].E.M.G.Y.I.F.Y.P.R.K.L.R.[am]}$$$$V2.0) | 90.1 |
| CC[C@H](C)[C@H](NC(=O)[C@H](Cc1ccc(O)cc1)NC(=O)CNC(=O)[C@H](CCSC)NC(=O)[C@@H](C)NC(=O)[C@H](CCC(N)=O)NC(=O)[C@H](Cc1c[nH]c2ccccc12)NC(=O)[C@H](CCCNC(=N)N)NC(=O)[C@H](CCSC)NC(C)=O)C(=O)N[C@@H](Cc1ccccc1)C(=O)N[C@@H](Cc1ccc(O)cc1)C(=O)N1CCC[C@H]1C(=O)N[C@@H](CCCNC(=N)N)C(=O)N[C@@H](CCCCN)C(=O)N[C@@H](CC(C)C)C(=O)N[C@@H](CCCNC(=N)N)C(N)=O [compound 156] (HELM PEPTIDE1{[ac].M.R.W.Q.[dA].M.G.Y.I.F.Y.P.R.K.L.R.[am]}$$$$V2.0) | 94.7 |
| CC[C@H](C)[C@H](NC(=O)[C@H](Cc1ccc(O)cc1)NC(=O)CNC(=O)[C@@H](C)NC(=O)[C@H](CCC(=O)O)NC(=O)[C@H](CCC(N)=O)NC(=O)[C@H](Cc1c[nH]c2ccccc12)NC(=O)[C@H](CCCNC(=N)N)NC(=O)[C@H](CCSC)NC(C)=O)C(=O)N[C@@H](Cc1ccccc1)C(=O)N[C@@H](Cc1ccc(O)cc1)C(=O)N1CCC[C@H]1C(=O)N[C@@H](CCCNC(=N)N)C(=O)N[C@@H](CCCCN)C(=O)N[C@@H](CC(C)C)C(=O)N[C@@H](CCCNC(=N)N)C(N)=O [compound 157] (HELM PEPTIDE1{[ac].M.R.W.Q.E.[dA].G.Y.I.F.Y.P.R.K.L.R.[am]}$$$$V2.0) | 85.0 |
| CC[C@H](C)[C@H](NC(=O)[C@@H](C)NC(=O)CNC(=O)[C@H](CCSC)NC(=O)[C@H](CCC(=O)O)NC(=O)[C@H](CCC(N)=O)NC(=O)[C@H](Cc1c[nH]c2ccccc12)NC(=O)[C@H](CCCNC(=N)N)NC(=O)[C@H](CCSC)NC(C)=O)C(=O)N[C@@H](Cc1ccccc1)C(=O)N[C@@H](Cc1ccc(O)cc1)C(=O)N1CCC[C@H]1C(=O)N[C@@H](CCCNC(=N)N)C(=O)N[C@@H](CCCCN)C(=O)N[C@@H](CC(C)C)C(=O)N[C@@H](CCCNC(=N)N)C(N)=O [compound 159] (HELM PEPTIDE1{[ac].M.R.W.Q.E.M.G.[dA].I.F.Y.P.R.K.L.R.[am]}$$$$V2.0) | 87.4 |
| CSCC[C@H](NC(C)=O)C(=O)N[C@@H](CCCNC(=N)N)C(=O)N[C@@H](Cc1c[nH]c2ccccc12)C(=O)N[C@@H](CCC(N)=O)C(=O)N[C@@H](CCC(=O)O)C(=O)N[C@@H](CCSC)C(=O)NCC(=O)N[C@@H](Cc1ccc(O)cc1)C(=O)N[C@H](C)C(=O)N[C@@H](Cc1ccccc1)C(=O)N[C@@H](Cc1ccc(O)cc1)C(=O)N1CCC[C@H]1C(=O)N[C@@H](CCCNC(=N)N)C(=O)N[C@@H](CCCCN)C(=O)N[C@@H](CC(C)C)C(=O)N[C@@H](CCCNC(=N)N)C(N)=O [compound 160] (HELM PEPTIDE1{[ac].M.R.W.Q.E.M.G.Y.[dA].F.Y.P.R.K.L.R.[am]}$$$$V2.0) | 87.1 |
| CC[C@H](C)[C@H](NC(=O)[C@H](Cc1ccc(O)cc1)NC(=O)CNC(=O)[C@H](CCSC)NC(=O)[C@H](CCC(=O)O)NC(=O)[C@H](CCC(N)=O)NC(=O)[C@H](Cc1c[nH]c2ccccc12)NC(=O)[C@H](CCCNC(=N)N)NC(=O)[C@H](CCSC)NC(C)=O)C(=O)N[C@H](C)C(=O)N[C@@H](Cc1ccc(O)cc1)C(=O)N1CCC[C@H]1C(=O)N[C@@H](CCCNC(=N)N)C(=O)N[C@@H](CCCCN)C(=O)N[C@@H](CC(C)C)C(=O)N[C@@H](CCCNC(=N)N)C(N)=O [compound 161] (HELM PEPTIDE1{[ac].M.R.W.Q.E.M.G.Y.I.[dA].Y.P.R.K.L.R.[am]}$$$$V2.0) | 83.7 |
| CC[C@H](C)[C@H](NC(=O)[C@H](Cc1ccc(O)cc1)NC(=O)CNC(=O)[C@H](CCSC)NC(=O)[C@H](CCC(=O)O)NC(=O)[C@H](CCC(N)=O)NC(=O)[C@H](Cc1c[nH]c2ccccc12)NC(=O)[C@H](CCCNC(=N)N)NC(=O)[C@H](CCSC)NC(C)=O)C(=O)N[C@@H](Cc1ccccc1)C(=O)N[C@H](C)C(=O)N1CCC[C@H]1C(=O)N[C@@H](CCCNC(=N)N)C(=O)N[C@@H](CCCCN)C(=O)N[C@@H](CC(C)C)C(=O)N[C@@H](CCCNC(=N)N)C(N)=O [compound 162] (HELM PEPTIDE1{[ac].M.R.W.Q.E.M.G.Y.I.F.[dA].P.R.K.L.R.[am]}$$$$V2.0) | 82.4 |
| CC[C@H](C)[C@H](NC(=O)[C@H](Cc1ccc(O)cc1)NC(=O)CNC(=O)[C@H](CCSC)NC(=O)[C@H](CCC(=O)O)NC(=O)[C@H](CCC(N)=O)NC(=O)[C@H](Cc1c[nH]c2ccccc12)NC(=O)[C@H](CCCNC(=N)N)NC(=O)[C@H](CCSC)NC(C)=O)C(=O)N[C@@H](Cc1ccccc1)C(=O)N[C@@H](Cc1ccc(O)cc1)C(=O)N[C@H](C)C(=O)N[C@@H](CCCNC(=N)N)C(=O)N[C@@H](CCCCN)C(=O)N[C@@H](CC(C)C)C(=O)N[C@@H](CCCNC(=N)N)C(N)=O [compound 163] (HELM PEPTIDE1{[ac].M.R.W.Q.E.M.G.Y.I.F.Y.[dA].R.K.L.R.[am]}$$$$V2.0) | 91.8 |
| CC[C@H](C)[C@H](NC(=O)[C@H](Cc1ccc(O)cc1)NC(=O)CNC(=O)[C@H](CCSC)NC(=O)[C@H](CCC(=O)O)NC(=O)[C@H](CCC(N)=O)NC(=O)[C@H](Cc1c[nH]c2ccccc12)NC(=O)[C@H](CCCNC(=N)N)NC(=O)[C@H](CCSC)NC(C)=O)C(=O)N[C@@H](Cc1ccccc1)C(=O)N[C@@H](Cc1ccc(O)cc1)C(=O)N1CCC[C@H]1C(=O)N[C@H](C)C(=O)N[C@@H](CCCCN)C(=O)N[C@@H](CC(C)C)C(=O)N[C@@H](CCCNC(=N)N)C(N)=O [compound 164] (HELM PEPTIDE1{[ac].M.R.W.Q.E.M.G.Y.I.F.Y.P.[dA].K.L.R.[am]}$$$$V2.0) | 77.2 |
| CC[C@H](C)[C@H](NC(=O)[C@H](Cc1ccc(O)cc1)NC(=O)CNC(=O)[C@H](CCSC)NC(=O)[C@H](CCC(=O)O)NC(=O)[C@H](CCC(N)=O)NC(=O)[C@H](Cc1c[nH]c2ccccc12)NC(=O)[C@H](CCCNC(=N)N)NC(=O)[C@H](CCSC)NC(C)=O)C(=O)N[C@@H](Cc1ccccc1)C(=O)N[C@@H](Cc1ccc(O)cc1)C(=O)N1CCC[C@H]1C(=O)N[C@@H](CCCNC(=N)N)C(=O)N[C@H](C)C(=O)N[C@@H](CC(C)C)C(=O)N[C@@H](CCCNC(=N)N)C(N)=O [compound 165] (HELM PEPTIDE1{[ac].M.R.W.Q.E.M.G.Y.I.F.Y.P.R.[dA].L.R.[am]}$$$$V2.0) | 82.0 |
| CC[C@H](C)[C@H](NC(=O)[C@H](Cc1ccc(O)cc1)NC(=O)CNC(=O)[C@H](CCSC)NC(=O)[C@H](CCC(=O)O)NC(=O)[C@H](CCC(N)=O)NC(=O)[C@H](Cc1c[nH]c2ccccc12)NC(=O)[C@H](CCCNC(=N)N)NC(=O)[C@H](CCSC)NC(C)=O)C(=O)N[C@@H](Cc1ccccc1)C(=O)N[C@@H](Cc1ccc(O)cc1)C(=O)N1CCC[C@H]1C(=O)N[C@@H](CCCNC(=N)N)C(=O)N[C@@H](CCCCN)C(=O)N[C@H](C)C(=O)N[C@@H](CCCNC(=N)N)C(N)=O [compound 166] (HELM PEPTIDE1{[ac].M.R.W.Q.E.M.G.Y.I.F.Y.P.R.K.[dA].R.[am]}$$$$V2.0) | 78.0 |
